≈ marks a conversion by molar mass, not a printed value.

Assay [1] has as its target E. coli Topoisomerase IV ATPase (Escherichia coli, UniProt P20083). As to the kind of experiment: E. coli Topoisomerase IV ATPase inhibition. Type of assay: biochemical. The method, then:
E. coli Topoisomerase IV ATPase Inhibition Activity: Compounds can be tested for inhibition of E. coli topoisomerase IV ATPase activity as described above for E. coli GyrB except the 30 μl reactions contained the following: 20 mM TRIS buffer pH 8, 50 mM ammonium acetate, 8 mM magnesium chloride, 5% glycerol, 5 mM 1,4-Dithio-DL-threitol, 0.005% Brij-35, 5 μg/ml sheared salmon sperm DNA, 500 pM E. coli ParC, 500 pM E. coli ParE, 160 μM ATP, and compound in dimethylsulfoxide. An IC50 measurement of compound potency for each compound can be determined from reactions performed in the presence of 10 different compound concentrations.

The target of the next assay is S. aureus GyrB ATPase (Staphylococcus aureus, UniProt P0A0K8). As to the kind of experiment: S. aureus GyrB ATPase inhibition (ammonium molybdate/malachite green phosphate detection). The settings on record: compound concentration of 1 μM; read-out: percent inhibition of S. aureus GyrB ATPase. It counts as biochemical. How it is done: S. aureus GyrB ATPase Inhibition Activity: Compounds may be tested for inhibition of S. aureus GyrB ATPase activity using an ammonium molybdate/malachite green-based phosphate detection assay (Lanzetta, P. A., L. J. Alvarez, P. S. Reinach, and O. A. Candia, 1979, 100: 95-97). Assays can be performed in multiwell plates in 30 μl reactions containing: 50 mM Hepes buffer pH 7.5, 75 mM ammonium acetate, 8.0 mM magnesium chloride, 0.5 mM ethylenediaminetetraacetic acid, 5% glycerol, 1.0 mM 1,4-Dithio-DL-threitol, 200 nM bovine serum albumin, 1.0 μg/ml sheared salmon sperm DNA, 250 pM E. coli GyrA, 250 pM S. aureus GyrB, 250 μM ATP, and compound in dimethylsulfoxide. Reactions can be quenched with 30 μl of ammonium molybdate/malachite green detection reagent containing 1.2 mM malachite green hydrochloride, 8.5 mM ammonium molybdate tetrahydrate, and 1 M hydrochloric acid. Plates can be read in an absorbance plate reader at 650 nm and percent inhibition values can be calculated using dimethylsulfoxide (2%)-containing reactions as 0% inhibition and EDTA-containing ([…]) reactions as 100% inhibition controls. An IC50 measurement of compound potency for each compound can be determined from reactions performed in the presence of 10 different compound concentrations.

The target in another assay is E. coli GyrB ATPase (Escherichia coli, UniProt P0AES6). As to the kind of experiment: E. coli GyrB ATPase inhibition (ammonium molybdate/malachite green phosphate detection). Type of assay: biochemical. The method, then:
E. coli GyrB ATPase Inhibition Activity: Compounds can be tested for inhibition of E. coli GyrB ATPase activity using an ammonium molybdate/malachite green-based phosphate detection assay (Lanzetta, P. A., L. J. Alvarez, P. S. Reinach, and O. A. Candia, 1979, 100: 95-97). Assays can be performed in multiwell plates in 30 μl reactions containing: 50 mM Hepes buffer pH 7.5, 75 mM ammonium acetate, 8.0 mM magnesium chloride, 0.5 mM ethylenediaminetetraacetic acid, 5% glycerol, 1 mM 1,4-Dithio-DL-threitol, 200 nM bovine serum albumin, 1.6 μg/ml sheared salmon sperm DNA, 400 pM E. coli GyrA, 400 pM E. coli GyrB, 250 μM ATP, and compound in dimethylsulfoxide. Reactions can be quenched with 30 μl of ammonium molybdate/malachite green detection reagent containing 1.2 mM malachite green hydrochloride, 8.5 mM ammonium molybdate tetrahydrate, and 1 M hydrochloric acid. Plates can be read in an absorbance plate reader at 650 nm and percent inhibition values are calculated using dimethylsulfoxide (2%)-containing reactions as 0% inhibition and EDTA-containing (2.4 μM) reactions as 100% inhibition controls. An IC50 measurement of compound potency for each compound can be determined from reactions performed in the presence of 10 different compound concentrations.

The next assay concerns Streptococcus pneumoniae. Briefly: Bacterial susceptibility testing in liquid media (MIC). The conditions noted are these: lowest drug concentration able to reduce growth by 80% or more, read-out: MIC against Streptococcus pneumoniae. It counts as cell-based. An excerpt: Compounds may be tested for antimicrobial activity by susceptibility testing in liquid media. Compounds may be dissolved in dimethylsulfoxide and tested in 10 doubling dilutions in the susceptibility assays. The organisms used in the assay may be grown overnight on suitable agar media and then suspended in a liquid medium appropriate for the growth of the organism. The suspension can be a 0.5 McFarland and a further 1 in 10 dilution can be made into the same liquid medium to prepare the final organism suspension in 100 μL. Plates can be incubated under appropriate conditions at 37° C. for 24 hrs prior to reading. The Minimum Inhibitory Concentration (MIC) may be determined as the lowest drug concentration able to reduce growth by 80% or more.

Chain of E. coli Topoisomerase IV ATPase (P0AFI2 whole entry): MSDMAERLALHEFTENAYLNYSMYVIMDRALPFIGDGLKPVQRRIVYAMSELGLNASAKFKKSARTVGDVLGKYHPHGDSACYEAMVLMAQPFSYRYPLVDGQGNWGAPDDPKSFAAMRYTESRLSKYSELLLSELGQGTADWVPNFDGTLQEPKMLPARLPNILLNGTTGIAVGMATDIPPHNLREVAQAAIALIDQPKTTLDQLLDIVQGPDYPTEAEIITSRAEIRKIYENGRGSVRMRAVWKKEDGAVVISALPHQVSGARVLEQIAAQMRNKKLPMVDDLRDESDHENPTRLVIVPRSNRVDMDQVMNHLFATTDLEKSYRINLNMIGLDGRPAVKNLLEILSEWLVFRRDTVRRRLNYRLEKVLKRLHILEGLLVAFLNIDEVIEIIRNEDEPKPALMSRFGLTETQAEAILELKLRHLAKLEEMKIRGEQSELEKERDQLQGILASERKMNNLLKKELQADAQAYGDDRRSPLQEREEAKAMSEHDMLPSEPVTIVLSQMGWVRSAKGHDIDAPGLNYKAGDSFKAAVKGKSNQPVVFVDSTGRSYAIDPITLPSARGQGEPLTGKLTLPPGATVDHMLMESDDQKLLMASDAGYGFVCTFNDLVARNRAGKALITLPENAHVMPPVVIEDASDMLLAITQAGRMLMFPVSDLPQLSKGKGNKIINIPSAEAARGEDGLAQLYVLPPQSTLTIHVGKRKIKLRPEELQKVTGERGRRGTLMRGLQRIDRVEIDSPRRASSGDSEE
Chain of E. coli Topoisomerase IV ATPase (P20083 whole entry): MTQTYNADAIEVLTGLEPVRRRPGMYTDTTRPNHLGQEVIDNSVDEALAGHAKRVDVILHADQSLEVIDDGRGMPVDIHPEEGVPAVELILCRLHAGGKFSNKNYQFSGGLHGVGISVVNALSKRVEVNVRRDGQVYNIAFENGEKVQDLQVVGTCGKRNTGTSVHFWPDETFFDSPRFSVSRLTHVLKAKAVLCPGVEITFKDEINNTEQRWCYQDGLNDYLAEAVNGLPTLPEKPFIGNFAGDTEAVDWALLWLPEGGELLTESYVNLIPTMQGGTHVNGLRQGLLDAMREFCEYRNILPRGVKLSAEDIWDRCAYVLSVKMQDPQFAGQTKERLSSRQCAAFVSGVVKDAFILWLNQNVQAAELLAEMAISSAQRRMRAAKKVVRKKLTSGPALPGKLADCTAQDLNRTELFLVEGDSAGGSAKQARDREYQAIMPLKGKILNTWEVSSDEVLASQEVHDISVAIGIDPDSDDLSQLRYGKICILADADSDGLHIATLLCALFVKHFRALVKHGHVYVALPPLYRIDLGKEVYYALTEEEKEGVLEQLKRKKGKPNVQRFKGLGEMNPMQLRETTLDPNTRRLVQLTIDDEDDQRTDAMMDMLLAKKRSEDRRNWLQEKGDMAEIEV
Chain of S. aureus GyrB ATPase (P0AES4 whole entry): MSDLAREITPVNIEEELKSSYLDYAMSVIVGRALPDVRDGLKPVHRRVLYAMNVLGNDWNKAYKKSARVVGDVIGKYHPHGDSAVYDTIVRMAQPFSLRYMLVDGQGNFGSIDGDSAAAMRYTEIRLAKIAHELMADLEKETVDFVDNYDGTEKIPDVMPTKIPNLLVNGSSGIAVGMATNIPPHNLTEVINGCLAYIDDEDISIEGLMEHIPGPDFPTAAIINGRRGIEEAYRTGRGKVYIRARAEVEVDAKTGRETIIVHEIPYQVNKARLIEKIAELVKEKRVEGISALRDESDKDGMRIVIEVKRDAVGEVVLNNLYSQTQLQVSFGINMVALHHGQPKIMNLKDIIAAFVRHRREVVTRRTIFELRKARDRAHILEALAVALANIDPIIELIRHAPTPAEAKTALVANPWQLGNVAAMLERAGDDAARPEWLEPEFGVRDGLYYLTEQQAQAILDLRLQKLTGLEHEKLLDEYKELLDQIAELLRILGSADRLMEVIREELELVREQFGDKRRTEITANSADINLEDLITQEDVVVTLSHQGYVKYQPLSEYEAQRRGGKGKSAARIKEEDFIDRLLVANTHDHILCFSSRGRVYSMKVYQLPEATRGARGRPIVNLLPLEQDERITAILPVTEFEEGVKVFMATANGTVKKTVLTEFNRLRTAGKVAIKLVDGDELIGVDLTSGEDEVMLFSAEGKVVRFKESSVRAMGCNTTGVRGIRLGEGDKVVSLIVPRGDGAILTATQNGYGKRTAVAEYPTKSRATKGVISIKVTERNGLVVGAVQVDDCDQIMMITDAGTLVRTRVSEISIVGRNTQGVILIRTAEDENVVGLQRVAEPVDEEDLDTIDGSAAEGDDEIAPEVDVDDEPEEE
Chain of S. aureus GyrB ATPase (P0A0K8 whole entry): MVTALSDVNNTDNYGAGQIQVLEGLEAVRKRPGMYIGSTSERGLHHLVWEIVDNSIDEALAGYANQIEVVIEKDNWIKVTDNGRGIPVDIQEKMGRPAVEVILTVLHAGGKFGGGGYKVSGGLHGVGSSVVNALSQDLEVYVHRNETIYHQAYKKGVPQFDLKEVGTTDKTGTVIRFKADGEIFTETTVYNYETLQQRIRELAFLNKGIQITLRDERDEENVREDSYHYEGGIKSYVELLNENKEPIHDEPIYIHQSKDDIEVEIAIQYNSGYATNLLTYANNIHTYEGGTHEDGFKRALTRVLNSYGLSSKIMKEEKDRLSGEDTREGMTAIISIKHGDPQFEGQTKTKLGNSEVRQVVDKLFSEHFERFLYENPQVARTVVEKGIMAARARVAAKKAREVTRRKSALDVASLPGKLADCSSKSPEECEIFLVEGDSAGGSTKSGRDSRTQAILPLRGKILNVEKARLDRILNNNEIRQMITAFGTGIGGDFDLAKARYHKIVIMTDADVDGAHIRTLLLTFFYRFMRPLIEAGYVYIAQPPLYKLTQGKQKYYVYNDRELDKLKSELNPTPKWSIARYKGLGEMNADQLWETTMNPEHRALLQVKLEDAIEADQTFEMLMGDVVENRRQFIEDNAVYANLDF

A word on the IC50: it is the concentration needed to halve the response being measured. The inhibition is the relative decrease from the control value, in per cent. The MIC is the lowest concentration found to suppress growth. Consider `CCNC(=O)Nc1cc(C#Cc2ccccn2)c(-c2cncc(-c3n[nH]c(=O)o3)c2)cn1` [Example 1, 1-ethyl-3-(5′-(5-oxo-4,5-dihydro-1,3,4-oxadiazol-2-yl)-4-(pyridin-2-ylethynyl)-3,3′-bipyridin-6-yl)urea], for which the IC50 (in assay [1]; at E. coli GyrB ATPase) was under 200 µM each time. For the same compound, the inhibition at 1 µM on S. aureus GyrB ATPase stood at 102%. Moreover, the MIC in the assay with Streptococcus pneumoniae was 0.2 µM (≈ 0.0855 µg/mL).

The record behind these values is patent US20090325902A1, “HETEROCYCLIC UREA DERIVATIVES AND METHODS OF USE THEREOF” (ASTRAZENECA AB, priority 2008, published 2009).
